Where “and” joins values, the source holds several entries; their conditions need not be identical. Equal entries are not always repeated. Where two headings read alike, the source gives them in different places. Bridge positions count the residues as written; N and C are the ends. Peptide text beside a SMILES is read from it.

A word on the stoichiometry N: it is the number of molecules, sites or subunits per partner or assembly.

Test [1] concerns the target B. subtilis ClpP (Bacillus subtilis) (UniProt P80244). Nature of the test: SEC; BsClpP purified under specific buffer conditions that favor tetradecamer assembly; tetradecameric fraction collected from a gel filtration column (buffers in ref. 43).
The target in test [2] is T1, BsClpP (Bacillus subtilis, UniProt P80244).
T1 construct: His-tag (C); made in house; host or cells: E. coli BL21 (DE3)
T1 sequence (P80244 whole entry): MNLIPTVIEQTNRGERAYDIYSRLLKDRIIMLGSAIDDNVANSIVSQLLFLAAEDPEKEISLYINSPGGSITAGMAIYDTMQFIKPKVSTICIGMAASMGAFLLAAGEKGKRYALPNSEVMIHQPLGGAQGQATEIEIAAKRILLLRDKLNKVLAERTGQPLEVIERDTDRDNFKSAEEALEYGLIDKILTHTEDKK
Nature of the test: BsClpP peptidase activity, preparation not specified. The format is biochemical, B. subtilis. How it is done: (§1) Peptide degradation assays were performed in black flat-bottom 96-well plates with a total reaction volume of 100 μL and reaction temperatures of 32 °C and 37 °C for SaClpP and BsClpP, respectively. Stock solutions of ADEP2 and MccJ25 WT or variants were dissolved in DMSO and pre-diluted to 100× of the final concentration. Accordingly, 1 μL of the respective stock solution was placed at the bottom of the wells. […] 50 μL of a 2× enzyme solution (final assay concentration: 1 μM) in activity buffer was added to the plate and incubated for 15 min at 32 °C and 37 °C for SaClpP and BsClpP activity assays, respectively. The enzyme reaction was started by addition of 49 μL of a solution of the fluorogenic model peptide substrate Suc-Leu-Tyr-AMC in activity buffer at a final concentration of 200 μM. For SaClpP assays, the activity buffer was comprised of 100 mM NaCl and 100 mM HEPES at pH 7. BsClpP activity buffer (50 mM Tris-HCl, 25 mM MgCl2, 200 mM KCl, 2 mM DTT, pH 8) was used in BsClpP assays as well as in SaClpP experiments, where the buffer composition was supposed to lead to oligomeric breakdown of the SaClpP tetradecamer to allow testing the activity retaining effect of ClpP agonists. The fluorescence read-out was measured using a Tecan (Crailsheim, Germany) M200Pro plate reader (excitation/emission: 380/460 nm) every 30–60 s for 1 h. Enzyme velocity was determined by linear regression of the initial segment of the fluorescence-time plot in GraphPad Prism 5 (GraphPad Software, San Diego, CA, USA). All assays were performed in triplicate and repeated at least two times.

The target of test [3] is T2, BsClpP tetradecamer (Bacillus subtilis, UniProt P80244).
T2 construct: His-tag (C); made in house; host or cells: E. coli BL21 (DE3)
T2 sequence (P80244 whole entry): as above
Kind of test: Peptidase activity of pre-purified tetradecameric BsClpP. To be noted: read-out: EC50, BsClpP14 peptidase activity. The format is biochemical, B. subtilis. The procedure:
as §1, with “BsClpP activity buffer (50 mM Tris-HCl, 25 mM MgCl2, 200 mM KCl, 2 mM DTT, pH 8) was used in BsClpP assays as well as in SaClpP experiments, where the buffer composition was supposed to lead to oligomeric breakdown of the SaClpP tetradecamer to allow testing the activity retaining effect of ClpP agonists.” left out, “All assays were performed in triplicate and repeated at least two times.” left out

For test [4], the target named is T3, BsClpP (monomer) (Bacillus subtilis, UniProt P80244).
T3 construct: His-tag (C); made in house; host or cells: E. coli BL21 (DE3)
T3 sequence (P80244 whole entry): as above
Nature of the test: Peptidase activity of BsClpP, predominantly monomeric preparation. The test is classed as biochemical, B. subtilis. The procedure: as §1, with “BsClpP activity buffer (50 mM Tris-HCl, 25 mM MgCl2, 200 mM KCl, 2 mM DTT, pH 8) was used in BsClpP assays as well as in SaClpP experiments, where the buffer composition was supposed to lead to oligomeric breakdown of the SaClpP tetradecamer to allow testing the activity retaining effect of ClpP agonists.” left out, “All assays were performed in triplicate and repeated at least two times.” left out

In test [5] the target is T4, SaClpP (Staphylococcus aureus, UniProt Q2G036).
T4 sequence (Q2G036 1-195): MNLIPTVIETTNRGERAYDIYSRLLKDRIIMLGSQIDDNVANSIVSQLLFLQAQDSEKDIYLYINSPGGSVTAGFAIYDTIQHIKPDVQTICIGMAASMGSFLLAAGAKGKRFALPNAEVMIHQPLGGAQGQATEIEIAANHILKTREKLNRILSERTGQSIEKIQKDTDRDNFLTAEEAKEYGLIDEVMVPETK
Kind of test: Peptide (Suc-LY-AMC) degradation by SaClpP in destabilizing Tris buffer pH 8. The test is classed as biochemical, S. aureus. Also noted: Strep-tag (C); made in house; host or cells: E. coli BL21 (DE3). To be noted: Tris buffer pH 8, 32 °C.
Excerpt: In order to assess the different MccJ25 variants, we first chose S. aureus ClpP (SaClpP) as a model peptidase and performed in vitro degradation assays with the fluorogenic model peptide substrate Suc-LY-AMC. […] To investigate whether the MccJ25 variants can exert a stabilizing effect on the oligomeric structure of tetradecameric SaClpP, we conducted peptide degradation assays under destabilizing conditions employing a Tris buffer at pH 8.
This experimental setup was then used to differentiate the MccJ25 variants regarding their effect on ClpP stability. […] The apparent affinity constant was deduced from enzyme activity assays and represents the effector molecule concentration at half maximal stimulation of enzyme activity (the lower the apparent affinity constant, the higher the affinity). To exclude that 12IGF serves as a SaClpP substrate, we incubated a mixture of SaClpP and 12IGF under assay conditions for up to 260 min.
as §1

Test [6] concerns the target T5, S. aureus ClpP (Staphylococcus aureus), Q2G036.
T5 chain: T4 sequence (Q2G036 1-195)
Kind of test: SEC; gel filtration of apo-SaClpP in HEPES buffer, pH 7 (purification: Superdex 200 HiLoad 16/600, 100 mM NaCl, 20 mM HEPES, pH 7; analytical: Superdex 200 3.2 Increase, 100 mM HEPES, 100 mM NaCl, pH 7). To be noted: remark: other sources report otherwise. (Size exclusion chromatography separates by hydrodynamic size, large species first.)

Test [7] concerns the target T5, S. aureus ClpP (Staphylococcus aureus), …. Nature of the test: SEC; analytical gel filtration, Superdex 200 3.2 Increase; SaClpP in Tris buffer pH 8 (50 mM Tris-HCl, 25 mM MgCl2, 200 mM KCl, 2 mM DTT) with 12IGF. To be noted: remark: other sources report otherwise.
Test [8] shares this target. Kind of test: SEC; analytical gel filtration, Superdex 200 3.2 Increase; SaClpP diluted 10x in BsClpP activity buffer (50 mM Tris-HCl, 25 mM MgCl2, 200 mM KCl, 2 mM DTT, pH 8), no effector. To be noted: remark: other sources report otherwise.
Test [9] shares this target. Nature of the test: SEC; analytical gel filtration, Superdex 200 3.2 Increase; SaClpP in Tris buffer pH 8 (50 mM Tris-HCl, 25 mM MgCl2, 200 mM KCl, 2 mM DTT) with ADEP2. To be noted: remark: other sources report otherwise.

Turning to “B. subtilis ClpP (from UniProt P80244 1-197) (enzyme)”, the stoichiometry N in test [1] is 14.
As to `CC[C@H](C)[C@H](NC(=O)[C@@H](NC(=O)[C@H](Cc1ccccc1)NC(=O)[C@H](Cc1ccc(O)cc1)NC(=O)[C@@H]1CCC(=O)NCC(=O)NCC(=O)N[C@@H](C)C(=O)NCC(=O)N[C@@H](Cc2c[nH]cn2)C(=O)N[C@@H](C(C)C)C(=O)N2CCC[C@H]2C(=O)N1)C(C)C)C(=O)NCC(=O)N[C@@H](Cc1ccccc1)C(=O)N[C@H](C(=O)N1CCC[C@H]1C(=O)N[C@H](C(=O)N[C@@H](CO)C(=O)N[C@@H](Cc1ccccc1)C(=O)N[C@@H](Cc1ccc(O)cc1)C(=O)NCC(=O)O)[C@@H](C)CC)[C@@H](C)O` [12IGF] (GGAGHVPEYFVIGFTPISFYG-OH; lactam N-8), the “EC50 relative to ADEP” value in [2] (12IGF EC50 in SaClpP and BsClpP peptidase assays vs EC50 values measured for ADEP) was “exceeded the EC50 values measured for ADEP by one to two orders of magnitude”. Further, the EC50 in test [2] (Figure 5C,D, with or without ADEP2 not specified, 37 °C) is 60 µM; in test [3] it was 60.3 ± 12.1 µM; in [4] (5 μM ADEP2, Tris pH 8, 37 °C, ± S.D., two separate experiments, read-out: EC50, BsClpP1 peptidase activity (+ADEP2)) it was 60.2 ± 3.78 µM; in [4] (with ADEP2 (Figure 5C), Tris pH 8, 37 °C, read-out: apparent affinity constant, BsClpP activation in the presence of ADEP2) it was 60 µM; in test [5] (1 μM SaClpP, 200 μM Suc-Leu-Tyr-AMC, 15 min pre-incubation, fluorescence 380/460 nm, ± S.D., three independent experiments, read-out: EC50, stabilizing effect on SaClpP peptidase activity) it was 26 ± 3.32 µM; in test [5] (effector concentration at half maximal stimulation of enzyme activity, Suc-Leu-Tyr-AMC, read-out: apparent affinity constant, stabilizing effect on SaClpP peptidase activity), ~26 µM and 26 µM.

B1: S. aureus ClpP, Q2G036 1-195 (enzyme)
chain: T4 sequence (Q2G036 1-195)
As for B1, the stoichiometry N in test [6] was found to be 14; in test [7], 14; in test [8] it was 7; in test [9], 14.

(Values after PMC8745299, “Generation of Lasso Peptide-Based ClpP Binders” (International Journal of Molecular Sciences, 2021).)
